Measured values as given in patent US7071344B1, “Vitamin D derivatives with cyclopropyl rings in the lateral chains, a method and intermediate products for the production thereof and the utilization thereof for producing medicaments” (Schering AG, priority 1997, dated 2006).

Assays:
HL 60 cells = test: differentiation induction of HL 60 cells to macrophages (NBT reduction); assay type: cell-based, human; conditions: dose ratio test substance/calcitriol for comparable semi-maximum differentiation induction; 96 hours incubation
Method: The differentiation-stimulating action of calcitriol analogues is also detected quantitatively.
It is known in the literature [Mangelsdorf, D. J. et al., J. Cell. Biol. 98: 391 (1984)] that the treatment of human leukemia cells (promyelocyte cell line HL 60) in vitro with calcitriol induces the differentiation of cells to macrophages.
HL 60 cells are cultivated in tissue culture medium (RPMI 10% fetal calf serum) at 37° C. in an atmosphere of 5% CO2 in air.
For substance testing, the cells are centrifuged off, and 2.0×10^5 cells/ml in phenol red-free tissue culture medium is taken up. The test substances are dissolved in ethanol and diluted with tissue culture medium without phenol red to the desired concentration. The dilution stages are mixed with the cell suspension at a ratio of 1:10, and 100 μl each of this cell suspension that is mixed with substance is pipetted into an indentation of a 96-hole plate. For control, a cell suspension is mixed analogously with the solvent.
After incubation for 96 hours at 37° C. in 5% CO2 in air, 100 μl of an NBT-TPA solution (nitro blue tetrazolium (NBT), final concentration in the batch of 1 mg/ml, tetradecanoyl phorbolmyristate-13-acetate (TPA), final concentration in the batch of 2×10^−7 mol/l) is pipetted into each indentation of the 96-hole plate in the cell suspension.
By incubation for 2 hours at 37° C. and 5% CO2 in air, NBT is reduced to insoluble formazan because of the intracellular oxygen radical release, stimulated by TPA, in the cells that are differentiated to macrophages.
To complete the reaction, the indentations of the 96-hole plate are suctioned off, and the cells are affixed to the bottom of the plate by adding methanol and dried after affixing. To dissolve the intracellular formazan crystals that are formed, 100 μl of potassium hydroxide (2 mol/l) and 100 μl of dimethyl sulfoxide are pipetted into each indentation and ultrasonically treated for 1 minute. The concentration of formazan is measured by spectrophotometry at 650 nm.
As a yardstick for the differentiation induction of HL 60 cells to macrophages, the concentration of formed formazan applies.

calcitriol receptor = target: T1, calcitriol receptor (Sus scrofa, UniProt A3RGC1); test: calcitriol-receptor test (competition with 3H-calcitriol); conditions: competition factor = concentration of test substance / concentration of calcitriol at 50% competition; protein extract from intestines of juvenile pigs
T1 sequence (A3RGC1 1-427): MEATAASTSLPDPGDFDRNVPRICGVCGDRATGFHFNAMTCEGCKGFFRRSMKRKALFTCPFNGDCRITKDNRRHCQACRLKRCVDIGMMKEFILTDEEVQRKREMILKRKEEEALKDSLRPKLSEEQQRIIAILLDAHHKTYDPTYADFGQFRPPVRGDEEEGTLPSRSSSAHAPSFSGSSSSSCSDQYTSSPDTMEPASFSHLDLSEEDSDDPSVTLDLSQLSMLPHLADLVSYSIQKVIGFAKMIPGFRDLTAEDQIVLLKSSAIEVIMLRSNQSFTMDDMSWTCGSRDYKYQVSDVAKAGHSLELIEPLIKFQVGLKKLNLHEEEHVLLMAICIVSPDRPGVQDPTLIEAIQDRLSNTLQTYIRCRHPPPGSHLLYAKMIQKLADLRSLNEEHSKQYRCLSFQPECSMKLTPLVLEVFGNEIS
Method: The vitamin D activity of the substances according to the invention is determined with the aid of the calcitriol-receptor test. It is carried out using a protein extract from the intestines of juvenile pigs.
Then, the samples are centrifuged at 10,000 g for 5 minutes at 4° C. The supernatant is decanted and measured in a β-counter after 1 hour of equilibration in Picofluor 15™.
The competition curves that are obtained at various concentrations of test substance as well as of reference substance (unlabeled calcitriol) at constant concentration of the reference substance (^3H-calcitriol) are placed in relation to one another, and a competition factor (KF) is determined.
It is defined as a quotient of the concentrations of the respective test substance and the reference substance, which are necessary for 50% competition:

[1] = metabolic stability in liver homogenate; assay type: in vitro ADME; conditions: half-life in the liver homogenate (rat)
Method: To determine the metabolic stability, the test substance is incubated with tissue homogenate (from the rat liver) in the presence of buffer systems. The drop in starting concentration is tracked as a function of time. After a certain time, the incubation is stopped, and the unaltered test substance is extracted from the homogenate (diethyl ether), concentrated by evaporation under nitrogen, isolated via HPLC (mobile solvent: acetonitrile/water) and detected using UV-absorption.

[2] = acute hypercalcemic action (serum-calcium) in rats; assay type: in vivo, rat; conditions: dose ratio test substance/calcitriol for comparable hypercalcemic action; one-time subcutaneous administration, male rats
Method: To determine the acute hypercalcemic action of various calcitriol derivatives, the test that is described below is carried out:
The action of control (solution base), reference substance (1,25-dihydroxy vitamin D3=calcitriol) and test substance is tested in each case after one-time subcutaneous administration in groups of 10 healthy male rats (140–170 g). During the testing time, the rats are kept in special cages to determine the excretion of water and mineral substances. Urine is collected in 2 fractions (0–16 hours and 16–22 hours). An oral dose of calcium (0.1 mmol of calcium in 6.5% alpha-hydroxypropylcellulose, 5 ml/animal) replaces at 1600 hours the calcium intake that is lacking by food deprivation. At the end of the test, the animals are killed by decapitation and exsanguinated to determine the serum-calcium values. For the primary screen test in vivo, an individual standard dose (200 μg/kg) is tested. For selected substances, the result is supported by establishing a dose-effect relation.
A hypercalcemic action is shown in serum-calcium level values that are higher than in the control.
The significance of differences between substance groups and controls and between test substance and reference substance are supported with suitable statistical processes.

SMILES | KF (calcitriol receptor) | T½ [1] [h] | DR Ca [2] | DR HL 60 (HL 60 cells) | half-life ([1]; read-out: T½) [h]
C=C1/C(=C\C=C2/CCC[C@]3(C)[C@@H]([C@H](C)/C=C/CC4(C(C)=O)CC4)CC[C@@H]23)C[C@@H](O)C[C@@H]1O [Compound 66, (5Z,7E,22E)-(1S,3R)-25-Acetyl-26,27-cyclo-9,10-secocholesta-5,7,10(19),22-tetraene-1,3-diol] | 10 | 1.83 | 30 | 0.5 | 
C=C1/C(=C\C=C2/CCC[C@]3(C)[C@@H]([C@H](C)/C=C/CC4(C(=O)CCC)CC4)CC[C@@H]23)C[C@@H](O)C[C@@H]1O [Compound 71, (5Z,7E,22E)-(1S,3R)-25-(1-Oxobutyl)-26,27-cyclo-9,10-secocholesta-5,7,10(19),22-tetraene-1,3-diol] | 9 | 2 | 100 | 1.7 | 
C=C1/C(=C\C=C2/CCC[C@]3(C)[C@@H]([C@H](C)/C=C/CC4(C(=O)CCCC)CC4)CC[C@@H]23)C[C@@H](O)C[C@@H]1O [Compound 76, (5Z,7E,22E)-(1S,3R)-25-(1-Oxopentyl)-26,27-cyclo-9,10-secocholesta-5,7,10(19),22-tetraene-1,3-diol] | 7 | >2 | >100 | 19 | 
C=C1C(=CC=C2CCCC3(C)C2CCC3C(C)C=CCC2(C(=O)CCCCC)CC2)CC(O)CC1O [Compound 81, (5Z,7E,22E)-(1S,3R)-25-(1-Oxohexyl)-26,27-cyclo-9,10-secocholesta-5,7,10(19),22-tetraene-1,3-diol] | 40 | >2 | >>300 | 9 | 
C=C1/C(=C\C=C2/CCC[C@]3(C)[C@@H]([C@H](C)/C=C/CCC4(C(C)=O)CC4)CC[C@@H]23)C[C@@H](O)C[C@@H]1O [Compound 126, (5Z,7E,22E)-(1S,3R)-25-Acetyl-26,27-cyclo-24a-homo-9,10-secocholesta-5,7,10(19),22-tetraene-1,3-diol] | 5 | 2 | 20 | 0.5 | 
C=C1/C(=C\C=C2/CCC[C@]3(C)[C@@H]([C@H](C)[C@@H](O)CCCC4(C(C)=O)CC4)CC[C@@H]23)C[C@@H](O)C[C@@H]1O [Compound 127, (5Z,7E)-(1S,3R,22S)-25-Acetyl-26,27-cyclo-24a-homo-9,10-secocholesta-5,7,10(19)-triene-1,3,22-triol] | 30 | 2 | >100 | 4 | 
C=C1C(=CC=C2CCCC3(C)C2CCC3C(C)C=CCCC2(C(=O)CCC)CC2)CC(O)CC1O [Compound 131, (5Z,7E,22E)-(1S,3R)-25-(1-oxobutyl)-26,27-cyclo-24a-homo-9,10-secocholesta-5,7,10(19) ,22-tetraene-1,3-diol] | 10 | 2 | 30 | 0.2 | 
C=C1C(=CC=C2CCCC3(C)C2CCC3C(C)C(O)CCCC2(C(=O)CCC)CC2)CC(O)CC1O [Compound 132, (5Z,7E)-(1S,3R,22S)-25-(1-Oxobutyl)-26,27-cyclo-24a-homo-9,10-secocholesta-5,7,10(19)-triene-1,3,22-triol] | 20 | 1.67 | >100 | 2 | 
C=C1C(=CC=C2CCCC3(C)C2CCC3C(C)C=CCCC2(C(=O)CCCC)CC2)CC(O)CC1O [Compound 136, (5Z,7E,22E)-(1S,3R)-25-(1-Oxopentyl)-26,27-cyclo-24a-homo-9,10-secocholesta-5,7,10(19),22-tetraene-1,3-diol] | 10 | >2 | >100 | 17 | 
C=C1/C(=C\C=C2/CCC[C@]3(C)[C@@H]([C@H](C)/C=C/[C@@H](O)CCC4(C(C)=O)CC4)CC[C@@H]23)C[C@@H](O)C[C@@H]1O [Compound 168b, (5Z,7E,22E)-(1S,3R,24S)-25-acetyl-26,27-cyclo-24a,24b-dihomo-9,10-secocholesta-5,7,10(19),22-tetraene-1,3,24-triol] | 3 | 2 | >100 | 7 | 
C=C1/C(=C\C=C2/CCC[C@]3(C)[C@@H]([C@H](C)/C=C/[C@@H](O)CCC4(C(=O)CCC)CC4)CC[C@@H]23)C[C@@H](O)C[C@@H]1O [Compound 175b, (5Z,7E,22E)-(1S,3R,24S)-25-(1-oxobutyl)-26,27-cyclo-24a,24b-dihomo-9,10-secocholesta-5,7,10(19),22-tetraene-1,3,24-triol] | 1 | 1.5 | >100 | 3 | 
C=C1/C(=C\C=C2/CCC[C@]3(C)[C@@H]([C@H](C)CCCC(C)(C)O)CC[C@@H]23)C[C@@H](O)C[C@@H]1O [calcitriol, 1α,25-dihydroxy vitamin D3, reference compound] |  |  | 1 | 1 | 2

Continued, in another order:

KF (calcitriol receptor) | T½ [1] [h] | DR Ca [2] | SMILES | DR HL 60 (HL 60 cells) | half-life ([1]; read-out: T½) [h]
2 | 1.67 | >100 | C=C1/C(=C\C=C2/CCC[C@]3(C)[C@@H]([C@H](C)/C=C/[C@@H](O)CCC4(C(=O)CCCC)CC4)CC[C@@H]23)C[C@@H](O)C[C@@H]1O [Compound 182b, (5Z,7E,22E)-(1S,3R,24S)-25-(1-oxopentyl)-26,27-cyclo-24a,24b-dihomo-9,10-secocholesta-5,7,10(19) ,22-tetraene-1,3,24-triol] | 18 | 
3 | 1.33 | >>1 | C=C1/C(=C\C=C2/CCC[C@]3(C)[C@@H]([C@H](C)/C=C/[C@H](O)C4(CC)CC4)CC[C@@H]23)C[C@@H](O)C[C@@H]1O [Compound 214a, (5Z,7E,22E)-(1S,3R,24S)-25-Ethyl-26,27-cyclo-9,10-secocholesta-5,7,10(19),22-tetraene-1,3,24-triol] | 1.5 | 
1 | 1.67 | >1 | C=C1/C(=C\C=C2/CCC[C@]3(C)[C@@H]([C@H](C)/C=C/[C@@H](O)C4(CC)CC4)CC[C@@H]23)C[C@@H](O)C[C@@H]1O [Compound 214b, (5Z,7E,22E)-(1S,3R,24R)-25-ethyl-26,27-cyclo-9,10-secocholesta-5,7,10(19),22-tetraene-1,3,24-triol] | 0.1 | 
2 | 1.5 | 10 | C=C1/C(=C\C=C2/CCC[C@]3(C)[C@@H]([C@H](C)/C=C/[C@@H](O)C4(/C=C/CC)CC4)CC[C@@H]23)C[C@@H](O)C[C@@H]1O [Compound 221b, [5Z,7E,22E,25(E)]-(1S,3R,24R)-25-(1-butenyl)-26,27-cyclo-9,10-secocholesta-5,7,10(19),22-tetraene-1,3,24-triol] | 0.1 | 
